In patent US20130237582A1, “PHARMACEUTICAL COMBINATION OF PACLITAXEL AND A CDK INHIBITOR” (Piramal Enterprises Limited, priority 2010, published 2013):

Experiments:
MCF-7 = assay: Cell cycle progression and apoptosis by flow cytometry (sub-G1); assay type: cell-based, human; settings: 4.5 μM
Description: Time dependent effect of Compound A on cell cycle progression and apoptosis was evaluated in two breast cancer cell lines. The asynchronous human breast cancer cell lines MCF-7 (Her low, ER+, PR+, BRCA+/−allelic loss) and MDA-MB-231 cells were seeded in […] tissue culture flask at a density of 0.5×10^6 cells per flask in RPMI 1460 with 10% FCS. After 24 h, cells were treated with 4.5 μM of Compound A for 0, 24, 48 and 72 h. Both detached and adherent cells were harvested (trypsinised) at different time points as mentioned in Table 3. After washing in phosphate buffered saline (PBS), cells were fixed in ice-cold 70% ethanol and stored at −20° C. until further analysis.
(§1) Before analysis, cells were washed twice with PBS to remove the fixative and re-suspended in PBS containing 50 μg/mL propidium iodide and 50 μg/mL RNaseA. After incubation at room temperature (20-35° C.) for 20 min, cells were analyzed using flow cytometry. A Becton Dickinson FACS Calibur flow cytometer (BD, USA) was used for these studies. The argon ion laser set at 488 nm was used as an excitation source. Cells with DNA content between 2n and 4n were designated as being in G1, S and G2/M phases of the cell cycle, as defined by the level of red fluorescence. […] The number of cells in each cell cycle compartment was expressed as a percentage of the total number of cells present. The results are shown in Table 3 and graphically presented in FIG. 3A (MCF-7 cell lines) and FIG. 3B (MDA-MB-231 cell lines).

MDA-MB-468 = assay: as above; assay type: cell-based, human
Description: as §1
Comparison of the effect of Compound A and PARP inhibitor BSI-201 (Iniparib developed by Sanofi-Aventis. BSI-201 is prepared in-house) on cell cycle progression and apoptosis was evaluated in two TNBC cell lines. The asynchronous human TNBC cell lines MDA-MB-231 and MDA-MB-468 were seeded in […] tissue culture flask at a density of 0.5×10^6 cells per flask in RPMI 1460 with 10% FCS. After 24 h, cells were treated either with 1.5 and 3.0 μM of Compound A or 50 μM of PARP inhibitor BSI-201 for 72 h. After the incubation cells were harvested (trypsinised) and processed as given in example 6.

VEGF = VEGF reporter gene based assay (M-9 cells); assay type: cell-based; settings: Homo sapiens, hypoxia, 20-24 h, read-out: IC50 for VEGF inhibition under hypoxia
Description: A cell line M-9 is MDA-MB-231 which is stably co-transfected with the VEGF-Luc construct (VEGF promoter in pGL2-basic) and a plasmid containing the Geneticin (G418) resistance gene which forms VEGF promoter reporter gene. The expression of the reporter gene in the clone cells, as measured by luciferase activity, is stable.
The effect of Compound A on VEGF inhibition was evaluated using the VEGF reporter gene based assay.
Lysis Assay Buffer (1×) • Tris-Phosphate (pH 7.8)-125 mM, DTT-10 mM, EDTA-10 mM, Glycerol-50% and Triton X-100-5%.
Luciferase Assay Reagent (LAR) • Luciferase Assay Buffer-8 mL, 530 μM ATP-530 μL, 270 μM CoA-1 mL and 170 μM Luciferin-1 mL.
Luciferase Assay Buffer (LAB) (1×) • Tricin (pH 7.8)-20 mM, Magnesia Alba-1.07 mM, MgSO4-2.67 mM, EDTA-0.1 mM and DTT-33.3 mM. ATP Stock made in LAB=5.85 mg/mL CoA Stock made in LAB=2.1 mg/mL Luciferin Stock made in LAB=1.5 mg/mL
1. M-9 cells were sub-cultured and maintained in RPMI-1640 Medium with supplement of 10% FBS, and 4 μL/ml G418 (Stock 100 mg/mL) in a humidified incubator at 37° C. and 5% CO2. 2. Cells were seeded at density of 3×10^4 cells/well in 180 μL volume in tissue culture grade 96 well white plates as well as transparent plates and allowed to adhere for 16-20 h in humidified CO2 incubator (5% CO2) at 37° C. A total of two sets of plates were made, as the incubation conditions are different. 3. Compound A, Sutent® and BSI-201 were diluted in medium serially so that final desired concentrations are achieved in the respective wells. (not more than 0.5% concentration of DMSO in the wells). 4. INCUBATION CONDITIONS: One set of plates are incubated under ambient atmospheric condition with 5% CO2, referred hereafter as NORMOXIC/OXIC PLATE. […] To all the wells, 100 μL Luciferase Assay Reagent (LAR) are added, plates are immediately read for Luminescence on TOPCOUNT™ (Packard, USA). The percentage inhibitions and Inhibitory Concentration (IC50) or Effective Concentration (EC50) are calculated in comparison with Control (untreated) values. […]

HUVEC = assay: Endothelial cell tube formation assay; assay type: cell-based, human
Text: The Tube Formation Assay represents a simple but powerful model for studying inhibition and induction of angiogenesis. The assay relies on the endothelial cells' ability to form distinct blood-vessel like tubules in an extracellular matrix (BD Matrigel™ Matrix, USA) where they can subsequently be visualized by microscopy. It enables analysis of angiogenic tubules in a 3 dimensional matrix that better resembles the native physiological environment.
Confluent HUVEC (Human umbilical vein endothelial cells) were cultured with above mentioned endothelial medium to desired confluence. For HUVEC 60-80% confluence is recommended.
Endothelial cell suspensions were prepared by trypsinizing the cell monolayers and resuspending the cells in culture medium with 5-10% serum. (0.5−1)×10^6 cells per 180 μL of cell suspension were added (per well of 24 well plate) to the medium (BD Matrigel Matrix) which, had been thawed at 4° C. This suspension was then added to the plates and kept for incubation. The cells were allowed to adhere for 2-3 h and then Compound A (1 μM), Rotenone (1 μM) (Sigma-Aldrich, USA) and Topotecan (3 μM) (Sigma-Aldrich, USA) (20 μL of 10× stocks) were added to the respective wells. DMSO was used as the control. After 24-48 h of incubation the cells were observed under a phase contrast microscope (Zeiss Axio Observer, Germany) for tube formation and angiogenesis.

CN1CC[C@@H](c2c(O)cc(O)c3c(=O)cc(-c4ccccc4Cl)oc23)[C@@H]1CO.Cl [Compound A, (+)-trans-2-(2-Chloro-phenyl)-5,7-dihydroxy-8-(2-hydroxymethyl-1-methyl-pyrrolidin-3-yl)-chromen-4-one hydrochloride]
% Apoptosis (MCF-7; 0 h): 1% | % Apoptosis (MCF-7; 24 h): 52% | % Apoptosis (MCF-7; 48 h): 80% | % Apoptosis (MCF-7; 72 h): 88% | % apoptosis at 72 h (MDA-MB-468; 1.5 μM): 36.09% | % apoptosis at 72 h (MDA-MB-468; 3 μM): 62.5% | IC50 (VEGF): 0.31 µM | tube formation inhibition compared with standards (HUVEC; 1 μM vs Rotenone 1 μM and Topotecan 3 μM): comparable to Rotenone (standard VEGF inhibitor) and better than Topotecan | endothelial tube formation (HUVEC; HUVEC in Matrigel, 1 μM, 24-48 h): effectively inhibited endothelial tube formation
